# From PubChem BioAssay (NCI)
# Several values for one entry are separate records, joined by “and”; a condition that tells them apart may be missing. Equal values may be shown once.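 Step 1: Grow cells in 96-well plates. Step 2: Expose to compound for 48 hours at 5 concentrations. Step 3: Interpolate endpoints linearly; if unreached, use highest concentration. GI50 is the concentration that inhibits growth by half. TGI marks complete inhibition of growth.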
# How the values were obtained:
# Assay in all cases: growth of human tumour cells (NCI), 48 h
# [1] = test system: TK-10 renal
# [2] = test system: HCC-2998 colon
# [3] = test system: RXF 393 renal
# [4] = test system: MOLT-4 leukemia
# [5] = test system: COLO 205 colon
# [6] = test system: HCT-116 colon
# [7] = test system: KM12 colon
# [8] = test system: UACC-62 melanoma
# [9] = test system: NCI-H23 lung
# [10] = test system: A498 renal
SMILES,GI50 [1] [µM],TGI [1] [µM],GI50 [2] [µM],TGI [2],GI50 [3] [µM],TGI [3],GI50 [4] [µM],TGI [4] [µM],GI50 [5] [µM],TGI [5],GI50 [6] [µM],TGI [6] [µM],GI50 [7] [µM],TGI [7] [µM],GI50 [8] [µM],TGI [8],GI50 [9] [µM],TGI [9],GI50 [10] [µM],TGI [10]
COc1ccc(/C=C/c2c(C(=O)/C=C/c3ccccc3)c(C)nc3ccccc23)cc1,2.55,5.73,1.88,3.48 µM,1.63,3.04 µM,1.33,5.69,1.76,3.5 µM,1.03,2.6,1.77,3.52,1.61,3.11 µM,1.73,4.19 µM,1.7,3.15 µM
CN1CCc2nc(N)nc(-c3nc(N)nc4c3CN(C)CC4)c2C1,,> 100,,,,> 100 µM,,> 100,,> 100 µM,,> 100,,> 100,,> 100 µM,,> 100 µM,,> 100 µM
CCOC(=O)N[C@@H]1C(CC(=O)OC)O[C@H]2OC(C)(C)O[C@H]21 (stereo not given in full),,,,> 100 µM,,> 100 µM,,> 100,,> 100 µM,,,,> 100,,> 100 µM,,> 100 µM,,> 100 µM
CC(=O)O[C@H]1CCC2[C@@H]3CC[C@]4(C)CC(=O)C=C[C@]4(C)C3CC[C@@]21C (stereo not given in full),,> 100,,> 88.5 µM,,67.7 µM,,47.9,,31.3 µM,,32.1,,44.3,,30.4 µM,,53.8 µM,,> 100 µM
CCCCNC1CCCCC[C@H]1O (stereo not given in full),,> 100,,> 100 µM,,> 100 µM,,> 100,,> 100 µM,,> 100,,> 100,,> 100 µM,,> 100 µM,,
COc1ccc(C(=O)c2cc(C)c(OC)c(C)c2)cc1OC(=O)CCl,34.7,> 100,0.0391,> 79.2 µM,,,< 0.0158,> 100,0.751,18.8 µM,< 0.0111,> 100,< 0.01,> 65.3,0.0402,> 100 µM,< 0.0293,> 100 µM,1.45,9.51 µM
O=C1c2cccnc2-c2nc(-c3ccc(Cl)cc3)cc3c2c1nc1ccccc13,24.6,> 100,> 100,> 100 µM,30.8,> 100 µM,51.7,> 100,> 100,> 100 µM,28.4,> 100,41,> 100,76,> 100 µM,,,33.5,> 100 µM
COc1cc(Cc2nccc3cc(OC)c(OC)cc23)c(C(C)=O)cc1OC,,341,,300 µM and > 750 µM,> 750,300 µM and > 750 µM,> 750,> 750,5.36,40.1 µM and 300 µM,,,106,300,,219 µM and > 750 µM,67.1,300 µM and > 750 µM,204,> 300 µM and 507 µM
c1ccc(C2N3CCCCC3[C@@H]3c4[nH]c5ccccc5c4CCN23)nc1 (stereo not given in full),,> 100,,,,> 100 µM,,> 100,,,,> 100,,,,> 100 µM,,> 100 µM,,> 100 µM
OCC1OC(n2cnc3c2NC=NC[C@H]3O)C(Cl)C1O (stereo not given in full),,> 100,,> 100 µM,,,,> 100,,> 100 µM,,> 100,,> 100,,> 100 µM,,> 100 µM,,> 100 µM
COC(=O)[C@@]12C(=O)C=CC(=O)C1C1C(=CC2C)OC2OC3(CCCCC3)OC21 (stereo not given in full),,31.6,,28.2 µM,,,,37.5,,28.4 µM,,29.8,,36.4,,29 µM,,39.9 µM,,32.2 µM
[N-]=[N+]=C1C(=O)NN=C1c1ccccc1,,> 100,,> 100 µM,,> 100 µM,,> 100,,> 100 µM,,> 100,,> 100,,,,> 100 µM,,
Cc1[nH]c(=O)nc2[nH][nH]c(=O)c12,,> 100,,,,> 100 µM,,> 100,,> 100 µM,,> 100,,> 100,,> 100 µM,,> 100 µM,,
CCOC(=O)C(=O)Nc1ccccc1CC,,> 100,,> 100 µM,,> 100 µM,,> 100,,,,> 100,,> 100,,> 100 µM,,> 100 µM,,
Nc1ccccc1/C(O)=C1/CCOC1=O,,> 100,,,,,,> 100,,> 100 µM,,> 100,,> 100,,> 100 µM,,> 100 µM,,> 100 µM
CCCC1=C(CC)C(C(=O)Nc2c(C)cccc2C)=NC(S)N1 (stereo not given),,> 100,,,,,,> 100,,> 100 µM,,> 100,,> 100,,> 100 µM,,> 100 µM,,> 100 µM

SMILES,GI50 [1] [µM],TGI [1] [µM],GI50 [2] [µM],TGI [2],GI50 [3] [µM],TGI [3],GI50 [4] [µM],TGI [4] [µM],GI50 [5] [µM],TGI [5],GI50 [6] [µM],TGI [6] [µM],GI50 [7] [µM],TGI [7] [µM],GI50 [8] [µM],TGI [8],GI50 [9] [µM],TGI [9],GI50 [10] [µM],TGI [10]
COC(=O)C12CC3CC(CC(C(=O)O)(C3)C1)C2,,> 100,,> 100 µM,,,,> 100,,,,> 100,,> 100,,> 100 µM,,> 100 µM,,> 100 µM
COC(=O)C(Cc1nc2ccccc2[nH]c1=O)C(NO)C(=O)Nc1c(Cl)cc([N+](=O)[O-])cc1Cl (stereo not given),,,,> 100 µM,,50.2 µM,,67,,> 100 µM,,47.9,,> 100,,34.5 µM,,61.1 µM,,46.5 µM
CCOC(=O)C1SC(=Nc2ccc(C)c(C)c2)N=C1C (stereo not given),,> 100,,> 100 µM,,,,> 100,,> 100 µM,,,,> 100,,> 100 µM,,> 100 µM,,> 100 µM
O=C(O)CNS(=O)(=O)c1ccc(NC(=O)c2ccc([N+](=O)[O-])cc2)cc1,,> 100,,> 100 µM,,> 100 µM,,> 100,,> 100 µM,,,,> 100,,> 100 µM,,> 100 µM,,> 100 µM
CCCN(CCC)C(=O)c1c([N+](=O)[O-])cc(C(F)(F)F)cc1[N+](=O)[O-],,> 100,,,,79.7 µM,,> 100,,39.1 µM,,87.4,,> 100,,50.1 µM,,73.3 µM,,> 100 µM
S=c1ssc(N2CCOCC2)c1Cl,16,> 100,30.6,> 100 µM,36,> 100 µM,31.8,> 100,> 100,> 100 µM,,,31,> 100,26.5,> 100 µM,29.1,> 100 µM,,
O=C(N/N=C/c1cc(Br)ccc1O)N/N=C/c1cc(Br)ccc1O,,> 100,,,,> 100 µM,,> 100,,> 100 µM,,,,> 100,,,,> 100 µM,,> 100 µM
COC(=O)C(CC(=O)Nc1ccc(C)cc1)C(=O)C(=O)Nc1c(C(C)C)cccc1C(C)C (stereo not given),,> 100,,> 100 µM,,> 100 µM,,> 100,,> 100 µM,,> 100,,,,> 100 µM,,> 100 µM,,> 100 µM
c1ccc(Sc2ccc(Cc3nc4cc5ccccc5cc4[nH]3)cc2)cc1,0.456,18,,,21.2,> 100 µM,8.18,> 100,10.1,30.9 µM,2.98,20.7,2.21,46.2,4.17,27.2 µM,7.46,36.1 µM,21.5,57.8 µM
c1cnn(CN(Cn2cccn2)Cn2cccn2)c1,,> 100,,,,> 100 µM,,> 100,,> 100 µM,,> 100,,> 100,,> 100 µM,,> 100 µM,,> 100 µM
Cc1ccc(N=C/C=C(\Nc2ccc(C)cc2)c2ccc(Cl)cc2)cc1,12.3,42.2,,,17.6,59.2 µM,4.25,> 100,7.11,> 100 µM,5.54,46.8,5.36,46.7,7.31,39.8 µM,11,32.3 µM,16.8,34.1 µM
Cn1cc(C2(C)CC(C)(C)c3c2n(C)c2ccccc32)c2ccccc21 (stereo not given),,> 100,,> 100 µM,,> 100 µM,,> 100,,> 100 µM,,,,> 100,,> 100 µM,,> 100 µM,,> 100 µM
COc1cc2c3c(n(CCCN)c(=O)c2cc1OC)-c1ccc(C#N)cc1C3=O,16.9,41.3,3.05,15 µM,,,0.748,3.49,13.2,28.7 µM,15.8,32.3,4.88,> 100,17,32.2 µM,9.02,25.6 µM,,
Clc1cc(Cl)c2ns[s+]c2c1Cl,,> 100,,,,> 100 µM,,> 100,,> 100 µM,,> 100,,> 100,,> 100 µM,,85.2 µM,,> 100 µM
O=C(c1cccc2ccccc12)N1CCC(C2CCN(C(=O)c3cccc4ccccc34)CC2)CC1,,> 100,,,,> 100 µM,,> 100,,> 100 µM,,> 100,,> 100,,> 100 µM,,> 100 µM,,> 100 µM
